From publication PMC5368057, “Structural, thermodynamic, and phosphatidylinositol 3‐phosphate binding properties of Phafin2” (Protein Science : A Publication of the Protein Society, 2017) come the findings set out here.

The target in this test is T1, Phafin2 (Homo sapiens, UniProt Q9H8W4).
T1 construct: gene PLEKHF2; full length (PH and FYVE domains; C-terminal tryptic peptide 224-249), pGEX4T3 GST fusion, GST removed by thrombin; N-terminus Gly-Ser-Met-Val-Asp (Gly-Ser from vector); E. coli Rosetta; 27,941 Da; monomer
T1 sequence (Q9H8W4 1-249): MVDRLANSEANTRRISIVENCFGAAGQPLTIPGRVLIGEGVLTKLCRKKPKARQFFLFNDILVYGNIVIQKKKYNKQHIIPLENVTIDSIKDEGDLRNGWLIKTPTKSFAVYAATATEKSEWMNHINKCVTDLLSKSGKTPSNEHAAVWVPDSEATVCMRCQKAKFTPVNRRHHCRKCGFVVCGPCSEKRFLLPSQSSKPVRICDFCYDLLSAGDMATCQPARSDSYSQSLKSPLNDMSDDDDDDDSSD
Put plainly: SPR, liposomes on L1 chip, two-state conformational change fit. The class given is binding. Conditions: 1.5% lipid in phosphatidylcholine (DOPC) liposomes, control liposomes without it; liposome buffer 20 mM HEPES pH 7.0, 100 mM NaCl; room temperature; apparent. In general terms: In SPR one partner is held on a chip, and binding of the other changes the refractive index at the surface.

As for `CCCCCCCCCCCCCCCC(=O)OC[C@H](COP(=O)(O)O[C@@H]1[C@H](O)[C@H](OP(=O)(O)O)[C@@H](O)[C@H](O)[C@H]1O)OC(=O)CCCCCCCCCCCCCCC` [dipalmitoyl PtdIns(3)P], the Kd is 285 ± 80 nM.
